Measured values as given in ChEMBL document CHEMBL3046098, “Effect of tropine derivatives, antimuscarinic agents, on the growth of Bombyx mori larvae” (1998).
Active and inactive are the calls of the source. The rule behind the calls is not given here.

Tests used:
Bombyx mori [1] = assay: Insecticidal activity against Bombyx mori Shunrei x Shogetu fourth-instar larvae assessed as effect on larval growth at 100 ppm administered in diet relative to untreated control; assay type: functional, organism-based
Bombyx mori [2] = assay: Effect on feeding in Bombyx mori Shunrei x Shogetu fourth-instar larvae assessed as change in quantity of excrement at 10 to 30 ppm administered in diet relative to untreated control; assay type: functional, organism-based
Bombyx mori [3] = assay: Insecticidal activity against Bombyx mori Shunrei x Shogetu fourth-instar larvae assessed as incidence of prolongation of 4th ecdysis at 30 ppm administered in diet relative to untreated control; assay type: functional
Bombyx mori [4] = assay: Insecticidal activity against Bombyx mori Shunrei x Shogetu fourth-instar larvae assessed as induction of delay in 4th ecdysis at 100 ug/larva applied daily through topical route (reference value: 4.3 +/- 0.48 days); assay type: functional
Bombyx mori [5] = assay: Insecticidal activity against Bombyx mori Shunrei x Shogetu fourth-instar larva assessed as effect on larval molting at 160 ug/larvae upon topial application; assay type: functional, organism-based
Bombyx mori [6] = assay: Insecticidal activity against Bombyx mori Shunrei x Shogetu fourth-instar larva assessed as effect on larval growth at 160 ug/larvae upon topial application; assay type: functional, organism-based
Bombyx mori [7] = assay: Insecticidal activity against Bombyx mori Shunrei x Shogetu fourth-instar larvae assessed as induction of delay in 4th ecdysis at 10 to 30 ppm administered in diet relative to untreated control; assay type: functional

| SMILES | Activity (Bombyx mori [1]) | Activity (Bombyx mori [2]) | Activity (Bombyx mori [3]) | Time (Bombyx mori [4]) | Activity (Bombyx mori [5]) | Activity (Bombyx mori [6]) | Time (Bombyx mori [7]) |
| --- | --- | --- | --- | --- | --- | --- | --- |
| O=C(O)CC(c1ccccc1)c1ccccc1 | inactive | – | – | – | – | – | – |
| CN1C2CC[C@@H]1C[C@@H](OC(=O)C(C)(c1ccccc1)c1ccccc1)C2 (single isomer, unassigned) | – | inactive | 40% | 5.3 days | inactive | inactive | – |
| CN1C2CC[C@@H]1C[C@@H](OC(=O)C(C)(C)C)C2 (single isomer, unassigned) | – | – | – | – | inactive | inactive | – |
| CN1C2CC[C@@H]1C[C@@H](OC(=O)C(c1ccccc1)c1ccccc1)C2 (single isomer, unassigned) | – | – | – | – | inactive | inactive | – |
| CN1C2CC[C@@H]1C[C@@H](OC(=O)CC(c1ccccc1)c1ccccc1)C2 (single isomer, unassigned) | inactive | – | – | – | inactive | inactive | – |
| CN1C2CC[C@@H]1C[C@@H](OC(=O)c1ccc(Cl)cc1Cl)C2 (single isomer, unassigned) | – | – | – | – | inactive | inactive | – |
| CN1C2CC[C@@H]1C[C@@H](OC(=O)c1ccc3ccccc3c1)C2 (single isomer, unassigned) | – | – | – | – | inactive | inactive | – |
| CN1[C@@H]2CC[C@H]1C[C@@H](OC(=O)C(CO)c1ccccc1)C2 (stereo not given in full) [ATROPINE] | – | inactive | – | 4.7 days | – | – | 1 days |
